Data as given in patent US11643439B2, “Multi-target compound with anticoagulation and antiplatelet activity, preparation method therefor, and use thereof” (SHAANXI MICOT TECHNOLOGY LIMITED COMPANY, priority 2015, dated 2023).
Marks after values point to notes of the source that are not given here.

Experiments:
[1] = tested on: blood coagulation function; assay: TT in rabbits, single intravenous administration; format: in vivo, rabbit
Experimental: (§1) 1. Grouping and administration: 48 Rabbits were randomly divided into 6 groups, 8 rabbits per group. 1) Sham operation group (NS): Intravenous injection of the same volume of physiological saline; 2) positive control bivalirudin group (6 mg/kg); 3) positive control enoxaparin group (200 U/kg); 4) Low dose group of polypeptide 2 (3.0 mg/kg); 5) Medium dose group of polypeptide 2 (6.0 mg/kg); 6) High dose group of polypeptide 2 (12.0 mg/kg). Polypeptide 2 was administered by single intravenous administration. According to the body weight in kilograms of the rabbits, the sample was dissolved in 2 mL of physiological saline for single bolus injection. The sham operation group was administered with the same volume of physiological saline.
3.2 Determination of blood coagulation function: Blood samples were taken and the blood function (PT, TT, APTT) was determined at 0 min before administration, at points of 5 min and 15 min after administration, using a platelet-aggregation coagulation factor analyzer. Blood samples were centrifuged at 3510 rpm for 8 min to obtain platelet poor plasma (PPP). Reagent reconstruction and preservation were performed according to the operation requirements of the kit. Immediately after each blood sample was placed into a test cup and then added with PT. TT and APTT reagents, the test was started. After the test was completed, results were recorded.

[2] = tested on: thrombin-induced pulmonary embolism; assay: Thrombin-induced pulmonary embolism in mice; format: in vivo, mouse; settings: thrombin 1500 u/kg; for Mortality rate: within 15 min
Experimental: Mice were randomly divided into 7 groups with 10 mice per group, in which group 1 was physiological saline group, group 2 was model control group, group 3 was positive control group of enoxaparin 0.5 mg/kg, group 4 was positive control group of bivalirudin 8 mg/kg, group 5 was low dose group of polypeptide 2 at 2.5 mg/kg, group 6 was medium dose group of polypeptide 2 at 5.0 mg/kg, and group 7 was high dose group of polypeptide 2 at 10.0 mg/kg. Except that physiological saline group and model control group were subjected to tail intravenous injection of 200 μl physiological saline, the other groups were given according to the doses, respectively. After 2 min, the mice in physiological saline group were administered with 100 μl physiological saline through tail intravenous injection and the other groups were each administered with 100 μl thrombin based on 1500 u/kg (80% to 90% of the lethal dose) through tail intravenous injection. The mice were observed after the administration for their death within 15 min.
(1) Recording mortality rate: the death status of mice with acute pulmonary embolism mice within 15 min was recorded and the survival time was recorded, to calculate the mortality rate;
(2) Determining lung coefficient: immediately after death, the bronchial and adipose tissues were dissected away from the lung tissue, and the lung tissue was washed with distilled water, and weighed for the lung weight after soaking up the water on the surface of the lung with a filter paper. The lung was taken out and weighed, to calculate the lung coefficient. Lung coefficient=Lung weight/Body weight×100%;
The lung was immediately dissected and taken out and weighed to determine the lung coefficient.

[3] = tested on: FeCl3-induced femoral artery thrombosis; assay: FeCl3-induced femoral artery thrombosis in rabbits, single intravenous administration; format: in vivo, rabbit
Experimental: as §1
2.1 Surgery preparation of rabbits: Rabbit were sent to the laboratory for accommodation for one day, and then screened at first. Blood samples were taken from arteries within ears, which were subjected to blood routine analysis and APTT examinations, and the rabbits with a normal blood hemogram and APTT between 16 and 28 seconds were selected for experiments. The rabbits to be tested were fasted with free access to water in the night before the experiment. The rabbits were anesthetized with intravenous injection of 3% sodium pentobarbital solution at 1 ml/kg, fixed in the supine position, and then, the common carotid artery at one side, external jugular vein, femoral artery at one side, femoral vein, and forelimb vein at one side were isolated. The forelimb vein was subjected to intubation for administration; the left femoral vein was subjected to intubation for blood collection to determine the platelet aggregation rate: the femoral artery was used for the establishment of an arterial thrombosis model; the common carotid artery and external jugular vein were used for the establishment of an arterial and venous bypass thrombosis model.
2.3 Arterial thrombosis (AT) model: A small piece of filter paper (1 cm×1.5 cm) absorbed with 50% FeCl3 solution was applied onto the right femoral artery while administration, below which a small piece of a plastic film (2.5 cm×2.0 cm) was placed to protect surrounding tissues. After 10 minutes, the filter paper was removed, and then, the blood vessels and local tissues were rinsed with warm physiological saline, and the covered blood vessels were cut off. The thrombus which attached to the blood vessel walls was peeled off to be weighed on a tin foil for its wet weight, and then kept overnight at room temperature and weighed for its dry weight.
The femoral arteries in the […] and both sides in the rabbits were isolated and stabilized for 10 min before the administration was started. An AT model was established by covering the femoral artery with 50% FeCl3 filter paper while administration, and the filter paper was removed after covering for 15 minutes. An AVST model was established and it was taken out after […]. Observation was continued for 120 min after administration until the experiment was completed.
3.4 Thrombus weight: After the experiment was completed, the segment of the blood vessels in which there had been thrombus formation was cut off, weighed for the wet weight, and then kept overnight at room temperature and weighed for the dry weight. The thrombosis inhibitory rate was calculated with a calculation equation as follows: […]

platelet aggregation = assay: Platelet aggregation in rabbits, single intravenous administration; format: in vivo, rabbit
Experimental: as §1
3.1 Platelet aggregation rate: 2.7 ml of blood was taken from the femoral vein, rapidly injected into a centrifuge tube containing 0.3 ml of 3.8% sodium citrate solution, and fully mixed well. The resulted blood samples were centrifuged at 810 rpm (100 g) for 8 min to obtain PRP, which was taken out and centrifuged at 3500 rpm (1863 g) for 8 min to obtain PPP, which was used to determine platelet aggregation.
Blood samples were taken at a point before administration (0 min), and at points of administration for 5 min and 15 min, respectively, to determine the platelet aggregation rate, which was used to calculate the inhibitory rate of platelet aggregation with a calculation equation as follows: […]

[4] = single iv 6.0 mg/kg, Before administration
[5] = single iv 6.0 mg/kg, Administration for 5 min
[6] = single iv 6.0 mg/kg, Administration for 15 min
[7] = single iv 200 (U/kg), Administration for 5 min
[8] = single iv 200 (U/kg), Administration for 15 min

Substance: D-Phe Pro Arg Pro Gly Gly Gly Gly Asn Gly Asp Phe Glu Glu Ile Pro Glu Glu Tyr Leu Glu Ala Ala Ala Lys Cys Har Gly Asp Trp Pro Cys [Polypeptide 2]
- TT ([1]; single iv 3.0 mg/kg, Before administration): 21.0 ± 2.6 S
- TT [1, 4]: 22.3 ± 1.9 S
- TT ([1]; single iv 12.0 mg/kg, Before administration): 21.8 ± 6.4 S
- Lung coefficient ([2]; tail iv 2.5 mg/kg): 0.94 ± 0.16 g/100 g
- Number of platelets ([2]; tail iv 2.5 mg/kg): 165.33 ± 20.2 ×10^9
- Mortality rate ([2]; tail iv 2.5 mg/kg, 2.5 mg/kg): 60 ^ %
- Mortality rate ([2]; tail iv 2.5 mg/kg, listed as polypeptide 2, 2.5 mg/kg): 60%
- Lung coefficient ([2]; tail iv 5.0 mg/kg): 1.08 ± 0.27 g/100 g
- Number of platelets ([2]; tail iv 5.0 mg/kg): 207.83 ± 33.09 ×10^9
- Mortality rate ([2]; tail iv 5.0 mg/kg, 5 mg/kg): 30**^# %
- Mortality rate ([2]; tail iv 5.0 mg/kg, listed as polypeptide 2, 5 mg/kg): 30%
- Lung coefficient ([2]; tail iv 10.0 mg/kg): 0.83 ± 0.14 g/100 g
- Number of platelets ([2]; tail iv 10.0 mg/kg): 529.57 ± 104.28 ×10^9
- Mortality rate ([2]; tail iv 10.0 mg/kg, 10 mg/kg): 10**^# %
- Mortality rate ([2]; tail iv 10.0 mg/kg, listed as polypeptide 2, 10 mg/kg): 10%
- Thrombus dry weight ([3]; single iv 3.0 mg/kg): 1.4 ± 0.5 mg
- Thrombus inhibitory rate ([3]; single iv 3.0 mg/kg): 52.99%
- Thrombus dry weight ([3]; single iv 6.0 mg/kg): 1.2 ± 0.7 mg
- Thrombus inhibitory rate ([3]; single iv 6.0 mg/kg): 56.90%
- Thrombus dry weight ([3]; single iv 12.0 mg/kg): 1.1 ± 0.9 mg
- Thrombus inhibitory rate ([3]; single iv 12.0 mg/kg): 60.82%
- inhibitory rate of platelet aggregation (platelet aggregation; single iv 3.0 mg/kg, Administration for 5 min): 17.2 ± 6.7%
- inhibitory rate of platelet aggregation (platelet aggregation; single iv 3.0 mg/kg, Administration for 15 min): 6.3 ± 7.0%
- inhibitory rate of platelet aggregation (platelet aggregation; [5]): 47.5 ± 5.8*^#¥& %
- inhibitory rate of platelet aggregation (platelet aggregation; [6]): 15.4 ± 6.0%
- inhibitory rate of platelet aggregation (platelet aggregation; single iv 12.0 mg/kg, Administration for 5 min): 72.5 ± 6.2*#^¥&@ %
- inhibitory rate of platelet aggregation (platelet aggregation; single iv 12.0 mg/kg, Administration for 15 min): 46.0 ± 6.5*^#¥&@ %

Substance: Bivalirudin: Bivalirudin for Injection, Xi'an Xintong Pharmaceutical Research Co., Ltd.; positive control thrombin inhibitor
- TT [1, 5]: >180 s
- TT [1, 6]: >180 s
- TT [1, 4]: 22.4 ± 5.2 S
- Lung coefficient ([2]; tail iv 8.0 mg/kg): 0.99 ± 0.07 g/100 g
- Number of platelets ([2]; tail iv 8.0 mg/kg): 411.89 ± 175.52 ×10^9
- Mortality rate ([2]; tail iv 8.0 mg/kg, 8 mg/kg): 10**^## %
- Mortality rate ([2]; tail iv 8.0 mg/kg, listed as bivalirudin, 8 mg/kg): 10%
- Thrombus dry weight ([3]; single iv 6.0 mg/kg): 1.5 ± 0.9 mg
- Thrombus inhibitory rate ([3]; single iv 6.0 mg/kg): 48.20%
- inhibitory rate of platelet aggregation (platelet aggregation; [5]): 5.2 ± 5.8%
- inhibitory rate of platelet aggregation (platelet aggregation; [6]): 4.6 ± 6.0%

Substance: Enoxaparin
- TT [1, 7]: >180 s
- TT [1, 8]: >180 s
- TT ([1]; single iv 200 (U/kg), Before administration): 20.7 ± 4.2 S
- Mortality rate ([2]; tail iv 0.5 mg/kg): 10%
- Lung coefficient ([2]; tail iv 250 IU/kg): 1.02 ± 0.33 g/100 g
- Thrombus dry weight ([3]; single iv 200 U (U/kg)): 1.5 ± 0.4 mg
- Thrombus inhibitory rate ([3]; single iv 200 U (U/kg)): 48.26%
- inhibitory rate of platelet aggregation (platelet aggregation; [7]): 9.5 ± 6.2%
- inhibitory rate of platelet aggregation (platelet aggregation; [8]): 16.1 ± 6.5%
